Conditions: Gas, Buoyancy - hydrostatic balance with magnetic suspension - one sinker

C=C(F)C(F)(F)F [2,3,3,3-tetrafluoro-1-propene]
Conditions	mass density [kg/m3]
265.46 K, 101.2 kPa	5.404
265.48 K, 207.2 kPa	11.507
270.36 K, 101 kPa	5.279
270.38 K, 164.6 kPa	8.792
270.38 K, 250.3 kPa	13.798
275.39 K, 106.2 kPa	5.448
275.4 K, 208.6 kPa	11.064
275.42 K, 303.7 kPa	16.657
280.28 K, 103.6 kPa	5.208
280.29 K, 176.6 kPa	9.076
280.29 K, 274 kPa	14.527
280.29 K, 356.2 kPa	19.43
285.27 K, 258.8 kPa	13.34
285.28 K, 104.7 kPa	5.162
285.28 K, 164.2 kPa	8.23
285.28 K, 358.5 kPa	19.078
290.38 K, 102.2 kPa	4.937
290.39 K, 184.5 kPa	9.113
290.4 K, 308.8 kPa	15.792
290.4 K, 421.2 kPa	22.298
295.4 K, 101.7 kPa	4.829
295.4 K, 196.9 kPa	9.565
295.4 K, 400.6 kPa	20.565
295.4 K, 600.7 kPa	32.885
295.41 K, 305.3 kPa	15.255
295.41 K, 510.2 kPa	27.092
300.2 K, 668.8 kPa	36.434
300.21 K, 108 kPa	5.039
300.21 K, 218.9 kPa	10.489
300.21 K, 324 kPa	15.933
300.21 K, 439.4 kPa	22.291
300.21 K, 545.8 kPa	28.564

Source: the NIST ThermoML archive (doi:10.1016/j.jct.2016.12.029)
